Data reported in EP0341019A2, “Polyether antibiotic” (priority 1988, dated 1989).
≈ marks a conversion by molar mass, not a printed value.

Legend:
[1] = tested on: Peptostreptococcus intermedius 1624; type: cell-based; settings: Peptostreptococcus, 1624, 24 h
[2] = tested on: Peptococcus asaccharolyticus 1302; type: cell-based; settings: Peptoniphilus asaccharolyticus, 1302, 24 h
[3] = tested on: Proteus sp.; type: cell-based; settings: 24 h
[4] = tested on: Clostridium perfringens 81; assay: microbe, parasite or virus in culture; type: cell-based; settings: Clostridium perfringens, 81, 24 h
[5] = tested on: Eimeria maxima Strain FS-410; assay: anticoccidial feed test in infected chickens, ionophore-resistant strain; type: in vivo
[6] = tested on: Bacteroides thetaiotaomicron 1438; type: cell-based; settings: 24 h
[7] = tested on: Herpes simplex viruses (HSV I); assay: antiviral tissue-culture test; type: cell-based, Herpes simplex virus
[8] = tested on: Pseudomonas aeruginosa X528; type: cell-based; settings: X528, 24 h
[9] = physchem
[10] = tested on: Staphylococcus aureus X400; type: cell-based; settings: X400, 24 h
[11] = tested on: Peptococcus prevoti 1281; type: cell-based; settings: 24 h
[12] = effect on growth of uninfected chicks; type: in vivo; settings: Table XXI, Compound ppm r3-r7: 0,8,10,12,14
From the text: Newly hatched chickens are raised in a coccidial-free environment for a seven-day period. On the morning of the eighth day, the chickens are weighed and assigned to treatment groups.
Each group of chicks (usually 4 or 5 chicks per group) is housed in a battery cage during the experiment. A constant lighting schedule and ad libitum access to feed (each experiment contains non-medicated and drug-medicated treatments) and water are provided for the chicks in each battery. Two days after the experiment is initiated, chicks that are designated to be infected are crop-intubated with a pure suspension of coccidial oocysts. The oocyst dosage used in each test is designed to produce clinical coccidiosis in infected nonmedicated animals.
After an additional seven-day growth period, the experiment is terminated. Each group of chicks is weighed, and the amount of feed consumed by each group is determined. From these measurements, final bird weights and efficiency of feed utilization are calculated. All birds are then sacrificed, and the intestine. and cecum are examined for the presence of coccidial-induced lesions.

[13] = tested on: Propionibacterium acnes 79; type: cell-based; settings: Cutibacterium acnes, 79, 24 h
[14] = tested on: Streptococcus faecalis 2041; type: cell-based; settings: Enterococcus faecalis, 2041, 24 h
[15] = tested on: Pseudomonas aeruginosa PS18; type: cell-based; settings: PS18, 24 h
[16] = tested on: Herpes simplex viruses (HSV II); assay: antiviral tissue-culture test; type: cell-based, Herpes simplex virus
[17] = tested on: adult stablefly; assay: insecticide test
From the text: (§1) The A82810 compounds are also useful as insecticides. For example, A82810 is active against southern armyworm, spider mite and blowfly larvae at levels as low as 100 ppm and against adult stablefly at levels as low as 50 ppm.

[18] = tested on: spider mite; assay: insecticide test
From the text: as §1

[19] = tested on: blowfly larvae; assay: insecticide test
From the text: as §1

[20] = tested on: southern armyworm; assay: insecticide test
From the text: as §1

[21] = tested on: E. acervulina Strain FS-316; assay: anticoccidial feed test in infected chickens, ionophore-resistant strain; type: in vivo
[22] = tested on: Staphylococcus aureus V41; type: cell-based; settings: V41, 24 h
[23] = tested on: Escherichia coli TEM; type: cell-based; settings: 24 h
[24] = tested on: Haemophilus influenzae C.L.; type: cell-based; settings: 24 h
[25] = tested on: Bacteroides corrodens 1874; type: cell-based; settings: Eikenella corrodens, 1874, 24 h
[26] = tested on: Serratia marcescens X99; type: cell-based; settings: X99, 24 h
[27] = tested on: Bacteroides vulgatis 1211; type: cell-based; settings: Bacteroides, 1211, 24 h
[28] = tested on: Staphylococcus aureus X1.1; type: cell-based; settings: X1.1, 24 h
[29] = tested on: Bacteroides fragilis 1877; type: cell-based; settings: Bacteroides fragilis, 1877, 24 h
[30] = tested on: Eimeria acervulina Strain 59 And E. tenella Strain 155; assay: anticoccidial feed test in infected chickens, ionophore-sensitive strains; type: in vivo
[31] = tested on: Haemophilus influenzae 76; type: cell-based; settings: Haemophilus influenzae, 76, 24 h

CC[C@@H](O)[C@]1(C)C[C@H](C)[C@@](O)([C@H]2C[C@H](C)[C@H]([C@]3(C)C[C@@H](O[C@H]4CC[C@H](OC)[C@@H](C)O4)[C@H]([C@]4(C)CC[C@@]5(O[C@H]([C@@H](C)[C@@H](OC)[C@H](C)C(=O)O)[C@H](C)[C@@H](OC)[C@H]5C)O4)O3)O2)O1 [Example A82810]
MIC [1]: ≤ 0.25 mg/L
MIC [2]: ≤ 0.25 mg/L
MIC [3]: > 128 mg/L
MIC [4]: 0.5 mg/L (≈ 0.593 µM)
AVERAGE INTESTINAL LESION SCORES ([5]; 1.25 ppm): 4.0
WEIGHT GAIN, PERCENT OF CONTROL ([5]; 1.25 ppm): 93% OF CONTROL
AVERAGE INTESTINAL LESION SCORES ([5]; 1.5 ppm): 3.3
INTESTINAL LESION SCORE ([5]; 1.5 ppm): 4.0
AVERAGE INTESTINAL LESION SCORES ([5]; 1.75 ppm): 3.8
WEIGHT GAIN, PERCENT OF CONTROL ([5]; 1.75 ppm): 91% OF CONTROL
INTESTINAL LESION SCORE ([5]; 2 ppm): 4.0
LESION SCORE ([5]; 2 ppm): 2.3
PERCENT REDUCTION IN OOCYST PRODUCTION ([5]; 2 ppm): 18%
AVERAGE INTESTINAL LESION SCORES ([5]; 2.5 ppm): 3.8
WEIGHT GAIN, PERCENT OF CONTROL ([5]; 2.5 ppm): 90% OF CONTROL
AVERAGE INTESTINAL LESION SCORES ([5]; 3 ppm): 3.1
WEIGHT GAIN, PERCENT OF CONTROL ([5]; 3 ppm): 88% OF CONTROL
AVERAGE INTESTINAL LESION SCORES ([5]; 3.5 ppm): 3.5
WEIGHT GAIN, PERCENT OF CONTROL ([5]; 3.5 ppm): 88% OF CONTROL
AVERAGE INTESTINAL LESION SCORES ([5]; 5 ppm): 4.0
WEIGHT GAIN, PERCENT OF CONTROL ([5]; 5 ppm): 74% OF CONTROL
AVERAGE INTESTINAL LESION SCORES ([5]; 6 ppm): 4.0
LESION SCORE ([5]; 6 ppm): 2.7
PERCENT REDUCTION IN OOCYST PRODUCTION ([5]; 6 ppm): 18%
LESION SCORE ([5]; 10 ppm): 2.4
PERCENT REDUCTION IN OOCYST PRODUCTION ([5]; 10 ppm): 36%
WEIGHT GAIN, PERCENT OF CONTROL ([5]; 10 ppm): 88% OF CONTROL
MIC [6]: 8 mg/L (≈ 9.49 µM)
active at levels as low as [7]: 1.56 µg/mL
MIC [8]: 2 mg/L (≈ 2.37 µM)
pKa [9]: 6.6
MIC [10]: 1 mg/L (≈ 1.19 µM)
MIC [11]: ≤ 0.25 mg/L
WEIGHT GAIN, PERCENT OF CONTROL ([12]; A82810 1.25 ppm): 98% OF CONTROL
WEIGHT GAIN, PERCENT OF CONTROL ([12]; A82810 1.5 ppm): 101% OF CONTROL
WEIGHT GAIN, PERCENT OF CONTROL ([12]; A82810 1.75 ppm): 105% OF CONTROL
WEIGHT GAIN, PERCENT OF CONTROL ([12]; A82810 2.0 ppm): 99% OF CONTROL
MIC [13]: 2 mg/L (≈ 2.37 µM)
MIC [14]: 1 mg/L (≈ 1.19 µM)
MIC [15]: > 128 mg/L
active at levels as low as [16]: 1.56 µg/mL
active at levels as low as [17]: 50 ppm
active at levels as low as [18]: 100 ppm
active at levels as low as [19]: 100 ppm
active at levels as low as [20]: 100 ppm
AVERAGE INTESTINAL LESION SCORES ([21]; 0.5 ppm): 7.3
WEIGHT GAIN, PERCENT OF CONTROL ([21]; 0.5 ppm): 72% OF CONTROL
AVERAGE INTESTINAL LESION SCORES ([21]; 1 ppm): 7.8
WEIGHT GAIN, PERCENT OF CONTROL ([21]; 1 ppm): 73% OF CONTROL
AVERAGE INTESTINAL LESION SCORES ([21]; 1.5 ppm): 7.9
WEIGHT GAIN, PERCENT OF CONTROL ([21]; 1.5 ppm): 73% OF CONTROL
AVERAGE INTESTINAL LESION SCORES ([21]; 2 ppm): 8.8
WEIGHT GAIN, PERCENT OF CONTROL ([21]; 2 ppm): 76% OF CONTROL
MIC [22]: 1 mg/L (≈ 1.19 µM)
MIC [23]: > 128 mg/L
MIC [24]: 128 mg/L (≈ 152 µM)
MIC [25]: 8 mg/L (≈ 9.49 µM)
MIC [26]: > 128 mg/L
MIC [27]: 4 mg/L (≈ 4.74 µM)
MIC [28]: 1 mg/L (≈ 1.19 µM)
MIC [29]: 8 mg/L (≈ 9.49 µM)
TOTAL LESION SCORE ([30]; 0.5 ppm): 12.1
WEIGHT GAIN, PERCENT OF CONTROL ([30]; 0.5 ppm): 60% OF CONTROL
TOTAL LESION SCORE ([30]; 1 ppm): 10.7
WEIGHT GAIN, PERCENT OF CONTROL ([30]; 1 ppm): 81% OF CONTROL
AVERAGE CECAL LESION SCORES ([30]; 1.25 ppm): 3.2
AVERAGE INTESTINAL LESION SCORES ([30]; 1.25 ppm): 6.0
WEIGHT GAIN, PERCENT OF CONTROL ([30]; 1.25 ppm): 87% OF CONTROL
AVERAGE CECAL LESION SCORES ([30]; 1.5 ppm): 2.6
AVERAGE INTESTINAL LESION SCORES ([30]; 1.5 ppm): 3.6
AVERAGE CECAL LESION SCORES ([30]; 1.75 ppm): 2.0
AVERAGE INTESTINAL LESION SCORES ([30]; 1.75 ppm): 2.3
WEIGHT GAIN, PERCENT OF CONTROL ([30]; 1.75 ppm): 82% OF CONTROL
MIC [31]: 64 mg/L (≈ 75.9 µM)
